Experiments:
[1] = 101 kPa, Liquid
[2] = mn = molality of the nth substance listed, in mol/kg; conditions: 101 kPa, Liquid

Cc1ccccc1C [1,2-dimethylbenzene]
[1]
Conditions	mass density [kg/m3]	viscosity [mPa·s]
303.15 K	872.1	0.7404
308.15 K	867.7	0.69
313.15 K	864	0.6451
318.15 K	859.7	0.6117
323.15 K	855.5	0.5711
328.15 K	851.2	0.5433
333.15 K	847.1	0.5105

Cc1cccc(C)c1 [1,3-dimethylbenzene]
[1]
Conditions	mass density [kg/m3]	viscosity [mPa·s]
303.15 K	855.6	0.549
308.15 K	851.1	0.5201
313.15 K	846.9	0.4967
318.15 K	842.4	0.4817
323.15 K	838.3	0.444
328.15 K	833.7	0.435
333.15 K	829.6	0.413

Cc1ccc(C)cc1 [1,4-dimethylbenzene]
[1]
Conditions	mass density [kg/m3]	viscosity [mPa·s]
303.15 K	852	0.5726
308.15 K	847.7	0.5374
313.15 K	843.2	0.5178
318.15 K	838.7	0.4882
323.15 K	834.5	0.4595
328.15 K	829.9	0.4439
333.15 K	825.6	0.4189

CC1=CC(=O)c2ccccc2C1=O [2-methyl-1,4-naphthalenedione] + Cc1ccccc1
[2]
Conditions	mass density [kg/m3]	viscosity [mPa·s]
303.15 K, m1 = 0.0454	859.6	0.5365
303.15 K, m1 = 0.0909	861.7	0.544
303.15 K, m1 = 0.1365	863.8	0.5487
303.15 K, m1 = 0.1817	865.9	0.5572
303.15 K, m1 = 0.227	868	0.5612
303.15 K, m1 = 0.2728	870.1	0.5683
308.15 K, m1 = 0.0454	855	0.5088
308.15 K, m1 = 0.0909	857.1	0.516
308.15 K, m1 = 0.1365	859.2	0.5185
308.15 K, m1 = 0.1817	861.3	0.5246
308.15 K, m1 = 0.227	863.4	0.5277
308.15 K, m1 = 0.2728	865.5	0.5346
313.15 K, m1 = 0.0454	850	0.4814
313.15 K, m1 = 0.0909	852.1	0.488
313.15 K, m1 = 0.1365	854.2	0.4902
313.15 K, m1 = 0.1817	856.3	0.4955
313.15 K, m1 = 0.227	858.4	0.4987
313.15 K, m1 = 0.2728	860.5	0.5051
318.15 K, m1 = 0.0454	845.6	0.4535
318.15 K, m1 = 0.0909	847.7	0.4582
318.15 K, m1 = 0.1365	849.8	0.463
318.15 K, m1 = 0.1817	851.9	0.4677
318.15 K, m1 = 0.227	854	0.4753
318.15 K, m1 = 0.2728	856.1	0.4775
323.15 K, m1 = 0.0454	840.8	0.4321
323.15 K, m1 = 0.0909	842.9	0.4362
323.15 K, m1 = 0.1365	845	0.439
323.15 K, m1 = 0.1817	847.1	0.443
323.15 K, m1 = 0.227	849.2	0.4459
323.15 K, m1 = 0.2728	851.3	0.4515
328.15 K, m1 = 0.0454	836.1	0.413
328.15 K, m1 = 0.0909	838.2	0.4147
328.15 K, m1 = 0.1365	840.3	0.4176
328.15 K, m1 = 0.1817	842.4	0.4208
328.15 K, m1 = 0.227	844.5	0.4242
328.15 K, m1 = 0.2728	846.6	0.4303
333.15 K, m1 = 0.0454	831.2	0.3872
333.15 K, m1 = 0.0909	833.3	0.3909
333.15 K, m1 = 0.1365	835.4	0.3927
333.15 K, m1 = 0.1817	837.5	0.398
333.15 K, m1 = 0.227	839.6	0.4065
333.15 K, m1 = 0.2728	841.7	0.4137

— the NIST ThermoML archive (doi:10.1021/je7006549)
